These results are taken from ChEMBL document CHEMBL1127820 (J Med Chem, 1994).

Test [1] deals with Norepinephrine transporter (Rattus norvegicus, UniProt Q9WTR4). In words: Inhibition of [3H]nisoxetine binding to norepinephrine (NE) transporter.
In test [2] the target is Sodium-dependent dopamine transporter (Rattus norvegicus, UniProt P23977). Put plainly: Inhibition of [3H]WIN-35428 binding to dopamine (DA) transporter.
The target in test [3] is Sodium-dependent serotonin transporter (Rattus norvegicus, UniProt P31652). Put plainly: Inhibition of [3H]paroxetine binding to 5-hydroxytryptamine (5-HT) transporter.
Sodium-dependent serotonin transporter, sequence (P31652 whole entry): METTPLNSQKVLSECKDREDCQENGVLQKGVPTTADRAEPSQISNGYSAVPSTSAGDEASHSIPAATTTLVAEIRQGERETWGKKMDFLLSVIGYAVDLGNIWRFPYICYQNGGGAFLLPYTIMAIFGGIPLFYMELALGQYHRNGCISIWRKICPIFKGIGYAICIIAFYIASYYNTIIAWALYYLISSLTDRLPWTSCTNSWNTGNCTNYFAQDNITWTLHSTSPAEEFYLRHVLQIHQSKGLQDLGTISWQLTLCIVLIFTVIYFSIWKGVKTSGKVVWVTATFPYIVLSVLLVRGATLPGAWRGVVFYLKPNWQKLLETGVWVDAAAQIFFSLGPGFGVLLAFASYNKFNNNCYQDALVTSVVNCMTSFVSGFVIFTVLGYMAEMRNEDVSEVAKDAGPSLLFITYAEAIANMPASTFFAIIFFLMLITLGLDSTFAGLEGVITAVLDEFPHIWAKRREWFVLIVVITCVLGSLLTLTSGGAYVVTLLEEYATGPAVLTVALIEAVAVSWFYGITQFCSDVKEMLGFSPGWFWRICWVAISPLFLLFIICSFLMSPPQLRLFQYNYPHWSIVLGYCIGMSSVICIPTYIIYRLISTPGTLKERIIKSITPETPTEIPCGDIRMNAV

Norepinephrine transporter, sequence (Q9WTR4 whole entry): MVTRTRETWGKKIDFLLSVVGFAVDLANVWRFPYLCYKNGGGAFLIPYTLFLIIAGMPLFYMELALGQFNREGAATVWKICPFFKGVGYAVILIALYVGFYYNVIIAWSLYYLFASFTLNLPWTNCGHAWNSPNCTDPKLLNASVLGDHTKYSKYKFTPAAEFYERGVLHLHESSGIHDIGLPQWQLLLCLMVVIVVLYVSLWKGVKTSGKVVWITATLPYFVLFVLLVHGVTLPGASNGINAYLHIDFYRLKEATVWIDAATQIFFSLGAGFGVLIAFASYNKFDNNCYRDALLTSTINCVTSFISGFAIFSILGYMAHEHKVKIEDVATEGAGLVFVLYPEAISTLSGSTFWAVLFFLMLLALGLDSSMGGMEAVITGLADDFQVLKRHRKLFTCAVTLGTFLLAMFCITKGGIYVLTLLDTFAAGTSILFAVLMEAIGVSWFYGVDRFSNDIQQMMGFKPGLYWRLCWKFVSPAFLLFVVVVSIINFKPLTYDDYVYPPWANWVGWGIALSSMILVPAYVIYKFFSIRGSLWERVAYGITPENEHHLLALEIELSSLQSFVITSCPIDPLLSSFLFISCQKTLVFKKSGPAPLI
Sodium-dependent dopamine transporter, sequence (P23977 whole entry): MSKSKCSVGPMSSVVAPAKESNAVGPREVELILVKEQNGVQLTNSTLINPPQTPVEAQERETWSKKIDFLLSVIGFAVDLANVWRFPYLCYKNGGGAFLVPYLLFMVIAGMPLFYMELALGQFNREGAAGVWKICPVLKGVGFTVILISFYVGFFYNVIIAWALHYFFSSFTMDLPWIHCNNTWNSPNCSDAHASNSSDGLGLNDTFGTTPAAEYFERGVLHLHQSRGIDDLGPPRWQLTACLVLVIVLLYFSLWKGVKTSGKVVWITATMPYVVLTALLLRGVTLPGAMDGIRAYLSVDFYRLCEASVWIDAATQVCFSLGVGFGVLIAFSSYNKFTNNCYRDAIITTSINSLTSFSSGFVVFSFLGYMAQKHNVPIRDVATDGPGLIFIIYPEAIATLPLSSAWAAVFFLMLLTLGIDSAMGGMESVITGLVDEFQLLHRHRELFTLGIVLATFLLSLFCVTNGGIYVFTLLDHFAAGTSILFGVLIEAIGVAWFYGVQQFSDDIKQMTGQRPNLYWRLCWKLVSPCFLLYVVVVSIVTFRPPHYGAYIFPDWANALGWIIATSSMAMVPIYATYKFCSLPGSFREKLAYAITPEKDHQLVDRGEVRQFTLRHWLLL

Broadly, the IC50 is the point on the concentration scale where inhibition reaches its midpoint. A higher IC50 goes with weaker potency in that assay. `COC(=O)[C@H]1[C@@H](c2ccc(F)cc2)C[C@H]2CC[C@H]1N2C` had an IC50 in test [1] of 834 nM.

Consider `COC(=O)C1C2CCC(C[C@@H]1c1ccc(F)cc1)N2` (stereo not given in full), for which the results for the concentration for half-maximal inhibition (IC50) in test [2], in test [1] and in test [3] were 4.39 nM, 18.8 nM and 68.6 nM, respectively.

For the molecule `CCc1ccc([C@H]2C[C@H]3CCC(N3)[C@H]2C(=O)OC)cc1`, the IC50 was determined as 49.9 nM in test [2], 122 nM in test [1] and 8.13 nM in test [3].

For `CC(C)OC(=O)[C@@H]1C2CC[C@H](C[C@@H]1c1ccc(I)cc1)N2`, the figures for the IC50 in test [2], in test [1] and in test [3] were 1.06 nM, 132 nM and 3.59 nM, respectively.

Turning to `COC(=O)[C@@H]1C2CC[C@H](C[C@@H]1c1ccc(I)cc1)N2`, the values for the IC50 in test [2], in test [1] and in test [3] were 0.69 nM, 7.54 nM and 0.36 nM, respectively.

Consider `COC(=O)C1C2CCC(C[C@@H]1OC(=O)c1ccccc1)N2` (stereo not given in full), for which the values for the IC50 in test [2], in test [1] and in test [3] were 206 nM, 139 nM and 127 nM, respectively.

In the case of `COC(=O)C1C2CCC(C[C@@H]1c1ccccc1)N2` (stereo not given in full), the IC50 is 30.8 nM in test [2], 84.5 nM in test [1] and 156 nM in test [3].

For `COC(=O)C1C2CC[C@H](C[C@@H]1c1ccc(I)cc1)N2C` (stereo not given in full), the IC50 turned out to be 36 nM in test [1] and 4.21 nM in test [3].

Regarding `COC(=O)C1C2CCC(C[C@@H]1c1ccc(Cl)cc1)N2` (stereo not given in full), the IC50 in test [2] is 0.62 nM; in test [1] it was 5.45 nM; in test [3], 4.13 nM.

Take `CCc1ccc([C@H]2C[C@H]3CCC(C2C(=O)OC)N3C)cc1` (stereo not given in full): the IC50 stood at 55 nM in test [2], 3910 nM in test [1] and 28.4 nM in test [3].

Consider `CC(C)OC(=O)C1C2CC[C@H](C[C@@H]1c1ccc(I)cc1)N2C` (stereo not given in full), for which the IC50 in test [2] amounted to 0.43 nM; in test [1] it was 285 nM; in test [3] it was 66.8 nM.
